Like-named read-outs stand apart in the source and are kept apart here. Marks after values point to notes of the source that are not given here.
Assays:
[1] = Effect of renal impairment; conditions: for Ae0–24 h (amount excreted in the urine over 24 h) / AUC(0-t) / CL renal / tmax / half-life: 100 mg QD; for Ae0–24 h (amount excreted in the urine over 24 h) / AUC(0-t) / CL renal / half-life: arithmetic mean (CV%); for AUC(0-t) / CL renal / tmax / half-life: both, human, in vivo, 100 mg; for AUC(0-t): AUC0–24 h; for CL renal: CLR (renal clearance); for tmax: median (min–max); for half-life: t½,λz (apparent terminal half-life)
[2] = cited from earlier work
[3] = tested on: JAK1; conditions: in human whole blood; cited from earlier work
[4] = for Ae0–24 h (amount excreted in the urine over 24 h) / AUC(0-t) / CL renal / half-life: arithmetic mean (CV%); for AUC(0-t): AUC0–24 h; for CL renal: CLR (renal clearance); for half-life: t½,λz (apparent terminal half-life)
[5] = filgotinib 100 mg QD for 10 days
[6] = both, human, in vivo, 100 mg, 100 mg QD, day 10, age 40–50 years
[7] = both, human, in vivo, 100 mg, 100 mg QD, day 10, age 65–74 years
[8] = both, human, in vivo, 100 mg, 100 mg QD, day 10, age ≥75 years

With O=C(Nc1nc2cccc(-c3ccc(CN4CCS(=O)(=O)CC4)cc3)n2n1)C1CC1 [Filgotinib] the “Ae0–24 h (amount excreted in the urine over 24 h)” value ([1]; day 10, mild RI) was 5.37 (42.1) % dose, the “Ae0–24 h (amount excreted in the urine over 24 h)” value ([1]; day 10, moderate RI) was 4.34 (51.2) % dose and the “Ae0–24 h (amount excreted in the urine over 24 h)” value ([1]; day 10, normal renal function) was 7.61 (35.4) % dose. For the same compound, the “Ae0–24 h (amount excreted in the urine over 24 h)” value ([1]; day 10, severe RI) was 2.08 (34) % dose, the “Steady state in plasma reached by” value ([1]; all renal function groups) was ≤ 2 days and the AUC(0-t) ([1]; day 10, mild RI) was 1890 ng·h/mL. It also gave an AUC(0-t) ([1]; day 10, moderate RI) of 2690 ng·h/mL, an AUC(0-t) ([1]; day 10, normal renal function) of 1820 ng·h/mL and an AUC(0-t) ([1]; day 10, severe RI) of 2640 ng·h/mL. For the same compound, the CL renal ([1]; day 10, mild RI) was 49.2 mL/min, the CL renal ([1]; day 10, moderate RI) was 31.5 mL/min and the CL renal ([1]; day 10, normal renal function) was 74.2 mL/min. For the same compound, the CL renal ([1]; day 10, severe RI) was 15 mL/min, the tmax ([1]; day 10, moderate RI) was 0.6 h and the tmax ([1]; day 10, normal renal function) was 0.8 h. For the same compound, the half-life ([1]; day 10, moderate RI) was 10.6 h, the half-life ([1]; day 10, normal renal function) was 5.42 h and the half-life ([1]; day 10, severe RI) was 9.03 h. The “Time after dosing at which Cmax was reached” value ([1]; day 10) was 1 h, the “CLR lower (drop) compared with subjects with normal renal function” value ([1]; severe RI vs normal renal function) was 80% and the “Impact of food on bioavailability” value [2] was “no impact”. The “Fraction excreted in the urine” value ([2]; in humans, filgotinib unchanged, metabolite as such, no reference given) was < 10%, the “Eliminated in urine (filgotinib and its metabolites)” value ([2]; no reference given) was > 80% and the “Selectivity for JAK1 over JAK2” value [3] was 30 times. For the same compound, the “Ae0–24 h (amount excreted in the urine over 24 h)” value ([4]; 100 mg QD, day 10, age 40–50 years) was 8.01 (26.5) ^b % dose, the “Ae0–24 h (amount excreted in the urine over 24 h)” value ([4]; 100 mg QD, day 10, age 40–50 years, listed as filgotinib) was 8.01 % dose and the “Ae0–24 h (amount excreted in the urine over 24 h)” value ([4]; 100 mg QD, day 10, age 65–74 years) was 6.55 (14.3) ^c % dose. The “Ae0–24 h (amount excreted in the urine over 24 h)” value ([4]; 100 mg QD, day 10, age 65–74 years, listed as filgotinib) was 6.55 % dose, the tmax ([4]; 100 mg QD, day 10, age 65–74 years, median (min–max)) was 2.0 (0.5–3.0) h and the “Ae0–24 h (amount excreted in the urine over 24 h)” value ([4]; 100 mg QD, day 10, age ≥75 years) was 7.24 (16.9) ^b % dose. For the same compound, the “Ae0–24 h (amount excreted in the urine over 24 h)” value ([4]; 100 mg QD, day 10, age ≥75 years, listed as filgotinib) was 7.24 % dose, the tmax ([4]; 100 mg QD, day 10, age ≥75 years, median (min–max)) was 2.0 (0.5–3.0) h and the tmax ([4]; both, human, in vivo, 100 mg) was 2 h. For the same compound, the AUC(0-t) [4, 6] was 1600 ng·h/mL, the AUC(0-t) [4, 7] was 1790 ng·h/mL and the AUC(0-t) [4, 8] was 2220 ng·h/mL. For the same compound, the CL renal [4, 6] was 92.5 mL/min, the CL renal [4, 7] was 65 mL/min and the CL renal [4, 8] was 55.5 mL/min. For the same compound, the half-life [4, 6] was 6.07 h, the half-life [4, 7] was 5.83 h and the half-life [4, 8] was 6.9 h. The “Time to steady state” value ([4]; predose (trough) concentrations, regardless of the age group) was “steady state by the second dosing day”, the “Fold-change in steady-state AUC0–24 h” value ([4]; ≥75 years relative to 40–50 years, point estimate [90% CI]) was 1.40 fold and the Safety and tolerability [5] was “generally safe and well tolerated”.

— PMC6256002 (British Journal of Clinical Pharmacology, 2018)
